Results as given in patent US20260090980A1, “COSMETIC COMPOSITIONS AND METHODS OF USING THE SAME” (MARY KAY INC., priority 2022, published 2026).

Test system: lipolysis
Assay: In-vitro activity: lipolysis
Assay type: cell-based
Settings: 3 %

Cn1c(=O)c2c(ncn2C)n(C)c1=O [Caffeine]
Activity: lipolysis: Lipolysis
